Measurements as given in ChEMBL document CHEMBL5154745, “Synthesis and antiviral activities of quinazolinamine-coumarin conjugates toward chikungunya and hepatitis C viruses” (Eur J Med Chem, 2022).

Columns and labels:
[1] = Selectivity index, ratio of CC50 for cytotoxicity against human cells over EC50 for antiviral activity against CHIKV 899 infected in African green monkey Vero cells; format: toxicity, cell-based; details: read-out: Ratio CC50/EC50
[2] = Cytotoxicity against human HEL cells measured after 3 days by coulter counting method; format: toxicity, cell-based; details: time 3 day
[3] = Lipophilicity, log P of the compound; format: physicochemical; details: octanol/water
Chikungunya virus [4] = assay: Antiviral activity against CHIKV 899 infected in African green monkey Vero cells measured after 7 days; format: functional, organism-based; details: Chikungunya virus, 899, Vero, 168 h
Hepatitis C virus = assay: Antiviral activity against HCV infected in human Huh-5-2 cells assessed as reduction in viral replication measured by Luciferase reporter gene assay; format: functional, organism-based, Hepacivirus hominis
Chikungunya virus [5] = assay: Antiviral activity against CHIKV assessed as inhibition of viral replication; format: functional, organism-based

| SMILES | selectivity ratio [1] | CC50 at 72 h [2] [µM] | logP [3] | EC50 (Chikungunya virus [4]) [µM] | EC50 (Hepatitis C virus) [µM] | EC50 (Chikungunya virus [5]) [µM] |
| --- | --- | --- | --- | --- | --- | --- |
| CC(C)(C)c1ccc2oc(=O)cc(CSc3nc(Nc4ccncc4)c4ccccc4n3)c2c1 | 8.8 | 17.3 | 3.93 | 1.96 | – | – |
| O=c1cc(CSc2nc(Nc3ccccc3)c3ccccc3n2)c2ccc(O)cc2o1 | – | – | – | > 234 | – | – |
| Cc1cc(C)nc(Nc2nc(S)nc3ccccc23)c1 | – | – | – | > 33.2 | – | – |
| Sc1nc(Nc2ccccc2)c2ccccc2n1 | 2.5 | 275 | – | 108 | – | – |
| CC(C)(C)c1ccc2oc(=O)cc(CSc3nc(Nc4cccc5ccccc45)c4ccccc4n3)c2c1 | – | – | – | > 193 | – | – |
| Cc1ccc(Nc2nc(S)nc3ccccc23)c(C)c1 | 2.4 | 142 | – | 59.4 | – | – |
| Sc1nc(Nc2cccc3ccccc23)c2ccccc2n1 | 7.4 | 118 | – | 16.1 | – | – |
| Cc1ccc2oc(=O)cc(CSc3nc(Nc4ccccc4)c4ccccc4n3)c2c1 | – | – | – | > 47 | – | – |
| O=c1ccc2ccccc2o1 [COUMARIN] | – | > 500 | – | – | > 150 | – |
| CC(C)(C)c1ccc2oc(=O)cc(CSc3nc(N(Cc4ccccc4)c4ccccc4)c4ccccc4n3)c2c1 | – | – | – | > 180 | – | – |
| Cc1cc(C)nc(Nc2nc(SCc3cc(=O)oc4ccc(C(C)(C)C)cc34)nc3ccccc23)c1 | – | – | – | > 151 | – | – |
| Cc1ccc(Nc2nc(SCc3cc(=O)oc4ccc(C(C)(C)C)cc34)nc3ccccc23)c(C)c1 | – | 84.6 | 5.03 | 3.11 | 27.9 | – |
| COc1ccccc1Nc1nc(SCc2cc(=O)oc3ccc(C(C)(C)C)cc23)nc2ccccc12 | 16.8 | 51.9 | 4.76 | 3.08 | – | – |
| COc1cc2oc(=O)cc(CSc3nc(Nc4ccccc4)c4ccccc4n3)c2cc1OC | – | – | – | > 212 | – | – |
| CC(C)(C)c1ccc2oc(=O)cc(CSc3nc(Nc4ccccc4)c4ccccc4n3)c2c1 | 37.2 | 147 | 4.88 | 3.95 | – | – |
| Cc1cccc(Nc2nc(SCc3cc(=O)oc4ccc(C(C)(C)C)cc34)nc3ccccc23)c1C | 10.8 | 150 | 5.04 | 13.9 | 16.6 | – |
| COc1ccc(CNc2nc(S)nc3ccccc23)cc1 | > 1 | > 336 | – | 329 | – | – |
| COc1ccccc1Nc1nc(S)nc2ccccc12 | 1.3 | 290 | – | 224 | – | – |
| Sc1nc(Nc2ccncc2)c2ccccc2n1 | 1.1 | 242 | – | 220 | – | – |
| Cc1cccc(Nc2nc(S)nc3ccccc23)c1C | 3.4 | 131 | – | 39.1 | – | – |
| COc1ccc(CNc2nc(SCc3cc(=O)oc4ccc(C(C)(C)C)cc34)nc3ccccc23)cc1 | > 1.7 | > 147 | – | 85.3 | – | – |
| Cc1ccc(C(=O)Nc2ccc(S(=O)(=O)O)c3cc(S(=O)(=O)O)cc(S(=O)(=O)O)c23)cc1NC(=O)c1cccc(NC(=O)Nc2cccc(C(=O)Nc3cc(C(=O)Nc4ccc(S(=O)(=O)O)c5cc(S(=O)(=O)O)cc(S(=O)(=O)O)c45)ccc3C)c2)c1 [SURAMIN] | – | – | – | – | – | 80 |
